Measurements taken from US5834453A, “Methods for the manufacture and use of antimicrobial sterol conjugates” (Lehigh University, priority 1997, dated 1998).
In brackets after ≈: the same amount, converted by molar mass. Entries after “also recorded” stand apart in the source; their conditions may differ.

Legend:
S. epidermidis (12228) = assay: MIC, micro-broth dilution; format: cell-based; details: Staphylococcus epidermidis, 35° C., 24 hours, read-out: ANTIMICROBIAL ACTIVITY (MIC)
Procedure: (§1) The antimicrobial activity of the compounds according to the present invention were compared with the results obtained for squalamine as reported in Proc. Nat. Acad. Sci. USA 90:1354 (1993), supra, the disclosure of which is incorporated in toto herein. The data reported in the following table is the minimum inhibitory concentration (MIC) required for complete inhibition of microbial growth. The MIC was determined utilizing known micro-broth dilution methods in which inocula of 10^6 /ml of the test organism were incubated in 0.5× trypticase soy broth at 35° C. for 24 hours. MIC's were also tested under various pH conditions, with calcium chloride or magnesium chloride, or with immobilized horse serum.
(§2) The numbers in parentheses contained in the table correspond to accession numbers with the American Type Culture Collection (reference strains were either obtained from the American Type Culture Collection or from the Microbiology Laboratory at Memorial Sloan-Kettering Cancer Center; Bacterial strains were maintained on Columbia 5% sheep blood agar plates, and fungi were maintained on Sabouraud Dextrose agar plates).

E. faecalis (29212) = assay: MIC, micro-broth dilution; format: cell-based; details: Enterococcus faecalis, 35° C., 24 hours, read-out: ANTIMICROBIAL ACTIVITY (MIC)
Procedure: as §1, §2

S. aureus (25923) = assay: MIC, micro-broth dilution; format: cell-based; details: Staphylococcus aureus, 35° C., 24 hours, read-out: ANTIMICROBIAL ACTIVITY (MIC)
Procedure: as §1, §2

P. vulgaris (13315) = assay: MIC, micro-broth dilution; format: cell-based; details: Proteus vulgaris, 35° C., 24 hours, read-out: ANTIMICROBIAL ACTIVITY (MIC)
Procedure: as §1, §2

S. pneumoniae (6305) = assay: MIC, micro-broth dilution; format: cell-based; details: Streptococcus pneumoniae, 35° C., 24 hours, read-out: ANTIMICROBIAL ACTIVITY (MIC)
Procedure: as §1, §2

A. fumigatus (H1120) = assay: MIC, micro-broth dilution; format: cell-based; details: Aspergillus fumigatus, 35° C., 24 hours, read-out: ANTIMICROBIAL ACTIVITY (MIC)
Procedure: as §1, §2

K. pneumoniae (13883) = assay: MIC, micro-broth dilution; format: cell-based; details: Klebsiella pneumoniae, 24 h, read-out: ANTIMICROBIAL ACTIVITY (MIC)
Procedure: as §1, §2

P. aeruginosa (2853) = assay: MIC, micro-broth dilution; format: cell-based; details: Pseudomonas aeruginosa, 24 h, read-out: ANTIMICROBIAL ACTIVITY (MIC)
Procedure: as §1, §2

E. coli (25922) = assay: MIC, micro-broth dilution; format: cell-based; details: Escherichia coli, 35° C., 24 hours, read-out: ANTIMICROBIAL ACTIVITY (MIC)
Procedure: as §1, §2

C. neoformans (90012) = assay: MIC, micro-broth dilution; format: cell-based; details: Cryptococcus neoformans, 24 h, read-out: ANTIMICROBIAL ACTIVITY (MIC)
Procedure: as §1, §2

S. aureus (H20809) = assay: MIC, micro-broth dilution; format: cell-based; details: Staphylococcus aureus, 24 h, read-out: ANTIMICROBIAL ACTIVITY (MIC)
Procedure: as §1, §2

S. pyrogenes (19615) = assay: MIC, micro-broth dilution; format: cell-based; details: 24 h, read-out: ANTIMICROBIAL ACTIVITY (MIC)
Procedure: as §1, §2

E. faecium (T6480-9) = assay: MIC, micro-broth dilution; format: cell-based; details: Enterococcus faecium, 35° C., 24 hours, read-out: ANTIMICROBIAL ACTIVITY (MIC)
Procedure: as §1, §2

A. fumigatus (H29709) = assay: MIC, micro-broth dilution; format: cell-based; details: Aspergillus fumigatus, 35° C., 24 hours, read-out: ANTIMICROBIAL ACTIVITY (MIC)
Procedure: as §1, §2

S. marcescens (13880) = assay: MIC, micro-broth dilution; format: cell-based; details: for MIC: Serratia marcescens, 24 h, read-out: ANTIMICROBIAL ACTIVITY (MIC)
Procedure: as §1, §2

E. cloacae (13047) = assay: MIC, micro-broth dilution; format: cell-based; details: Enterobacter cloacae, 35° C., 24 hours, read-out: ANTIMICROBIAL ACTIVITY (MIC)
Procedure: as §1, §2

C. albicans (90028) = assay: MIC, micro-broth dilution; format: cell-based; details: Candida albicans, 35° C., 24 hours, read-out: ANTIMICROBIAL ACTIVITY (MIC)
Procedure: as §1, §2

C. neoformans (M68979) = assay: MIC, micro-broth dilution; format: cell-based; details: Cryptococcus neoformans, 24 h, read-out: ANTIMICROBIAL ACTIVITY (MIC)
Procedure: as §1, §2

P. aeruginosa (10145) = assay: MIC, micro-broth dilution; format: cell-based; details: Pseudomonas aeruginosa, 35° C., 24 hours, read-out: ANTIMICROBIAL ACTIVITY (MIC)
Procedure: as §1, §2

S. agalactiae (13813) = assay: MIC, micro-broth dilution; format: cell-based; details: Streptococcus agalactiae, 35° C., 24 hours, read-out: ANTIMICROBIAL ACTIVITY (MIC)
Procedure: as §1, §2

S. aureus (29213) = assay: MIC, micro-broth dilution; format: cell-based; details: Staphylococcus aureus, 24 h, read-out: ANTIMICROBIAL ACTIVITY (MIC)
Procedure: as §1, §2

[1] = Hemolytic activity, minimal hemolytic concentration (MHC); format: cell-based, sheep; details: sheep, red blood cells;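 further: MCC here is the minimal hemolytic concentration (MHC)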
Procedure: Hemolytic activity of the squalamine mimics according to the present invention were also studied by incubating sheep red blood cells for 24 hours at 37° C. in saline (final concentration of 0.5%) with or without respective concentrations of the squalamine mimics. The minimal hemolytic concentration (MHC) was determined as the lowest concentration of a mimic that raised visible hemolysis.

SMILES	MIC (S. epidermidis (12228))	MIC (E. faecalis (29212))	MIC (S. aureus (25923))	MIC (P. vulgaris (13315))	MIC (S. pneumoniae (6305))	MIC (A. fumigatus (H1120))	MIC (K. pneumoniae (13883))	MIC (P. aeruginosa (2853))	MIC (E. coli (25922))	MIC (C. neoformans (90012))	MIC (S. aureus (H20809))	MIC (S. pyrogenes (19615))	MIC (E. faecium (T6480-9))	MIC (A. fumigatus (H29709))	MIC (S. marcescens (13880))	MIC (E. cloacae (13047))	MIC (C. albicans (90028))	MIC (C. neoformans (M68979))	MIC (P. aeruginosa (10145))	MIC (S. agalactiae (13813))	also measured
C[C@H](CCC(=O)NCCCCN)[C@H]1CC[C@H]2[C@@H]3CC[C@@H]4C[C@H](O)CC[C@]4(C)[C@H]3C[C@H](O)[C@]12C [SM-9]	25 µg/mL (≈ 54 µM)	25 µg/mL (≈ 54 µM)	25 µg/mL (≈ 54 µM)	50 µg/mL (≈ 108 µM)	25 µg/mL (≈ 54 µM)	50 µg/mL (≈ 108 µM)	50 µg/mL (≈ 108 µM)	100 µg/mL (≈ 216 µM)	50 µg/mL (≈ 108 µM)	25 µg/mL (≈ 54 µM)	25 µg/mL (≈ 54 µM)	6.25 µg/mL (≈ 13.5 µM)	50 µg/mL (≈ 108 µM)	50 µg/mL (≈ 108 µM)	> 100 µg/mL	50 µg/mL (≈ 108 µM)	25 µg/mL (≈ 54 µM)	25 µg/mL (≈ 54 µM)	100 µg/mL (≈ 216 µM)	12.5 µg/mL (≈ 27 µM)	MIC (S. aureus (29213)): 25 µg/mL (≈ 54 µM); MCC at 24 h [1]: 50 µg/mL
C[C@H](CCC(=O)NCCNCCNCCN)[C@H]1CC[C@H]2[C@@H]3CC[C@@H]4C[C@H](O)CC[C@]4(C)[C@H]3C[C@H](O)[C@]12C [SM-11]	6.25 µg/mL (≈ 12 µM)	12.5 µg/mL (≈ 24 µM)	6.25 µg/mL (≈ 12 µM)	25 µg/mL (≈ 48 µM)	12.5 µg/mL (≈ 24 µM)	12.5 µg/mL (≈ 24 µM)	12.5 µg/mL (≈ 24 µM)	6.25 µg/mL (≈ 12 µM)	12.5 µg/mL (≈ 24 µM)	6.25 µg/mL (≈ 12 µM)	12.5 µg/mL (≈ 24 µM)	6.25 µg/mL (≈ 12 µM)	12.5 µg/mL (≈ 24 µM)	12.5 µg/mL (≈ 24 µM)	50 µg/mL (≈ 96 µM)	12.5 µg/mL (≈ 24 µM)	12.5 µg/mL (≈ 24 µM)	6.25 µg/mL (≈ 12 µM)	6.25 µg/mL (≈ 12 µM)	6.25 µg/mL (≈ 12 µM)	activity against S. marcescens (S. marcescens (13880); in words): found even against S. marcescens; also recorded: effective against S. marcescens; MIC (S. aureus (29213)): 12.5 µg/mL (≈ 24 µM); MCC at 24 h [1]: 25 µg/mL
C[C@H](CCC(=O)NCCNCCNCCN)[C@H]1CC[C@H]2[C@@H]3[C@H](O)C[C@@H]4C[C@H](O)CC[C@]4(C)[C@H]3C[C@H](O)[C@]12C [SM-17]	25 µg/mL (≈ 46.6 µM)	50 µg/mL (≈ 93.1 µM)	25 µg/mL (≈ 46.6 µM)	50 µg/mL (≈ 93.1 µM)	25 µg/mL (≈ 46.6 µM)	25 µg/mL (≈ 46.6 µM)	50 µg/mL (≈ 93.1 µM)	50 µg/mL (≈ 93.1 µM)	50 µg/mL (≈ 93.1 µM)	12.5 µg/mL (≈ 23.3 µM)	50 µg/mL (≈ 93.1 µM)	12.5 µg/mL (≈ 23.3 µM)	50 µg/mL (≈ 93.1 µM)	25 µg/mL (≈ 46.6 µM)	> 100 µg/mL	50 µg/mL (≈ 93.1 µM)	25 µg/mL (≈ 46.6 µM)	12.5 µg/mL (≈ 23.3 µM)	100 µg/mL (≈ 186 µM)	12.5 µg/mL (≈ 23.3 µM)	MIC (S. aureus (29213)): 25 µg/mL (≈ 46.6 µM); MCC at 24 h [1]: > 100 µg/mL
C[C@H](CCC(=O)NCCNCCNCCN)[C@H]1CC[C@H]2[C@@H]3CC[C@@H]4CCCC[C@]4(C)[C@H]3CC[C@]12C [SM-21]	1.56 µg/mL (≈ 3.19 µM)	3.13 µg/mL (≈ 6.4 µM)	3.13 µg/mL (≈ 6.4 µM)	50 µg/mL (≈ 102 µM)	1.56 µg/mL (≈ 3.19 µM)	6.25 µg/mL (≈ 12.8 µM)	> 100 µg/mL	25 µg/mL (≈ 51.1 µM)	50 µg/mL (≈ 102 µM)	1.56 µg/mL (≈ 3.19 µM)	3.13 µg/mL (≈ 6.4 µM)	3.13 µg/mL (≈ 6.4 µM)	1.56 µg/mL (≈ 3.19 µM)	3.13 µg/mL (≈ 6.4 µM)	> 100 µg/mL	> 100 µg/mL	6.25 µg/mL (≈ 12.8 µM)	1.56 µg/mL (≈ 3.19 µM)	25 µg/mL (≈ 51.1 µM)	1.56 µg/mL (≈ 3.19 µM)	MIC (S. aureus (29213)): 3.13 µg/mL (≈ 6.4 µM); MCC at 24 h [1]: 3.13 µg/mL
C[C@H](CCC(=O)NCCCNCCCCNCCCN)[C@H]1CC[C@H]2[C@@H]3CC[C@@H]4C[C@H](OS(=O)(=O)O)CC[C@]4(C)[C@H]3CC[C@]12C [SM-22]	1.56 µg/mL (≈ 2.43 µM)	> 100 µg/mL	1.56 µg/mL (≈ 2.43 µM)	> 100 µg/mL	25 µg/mL (≈ 39 µM)	> 100 µg/mL	> 100 µg/mL	> 100 µg/mL	> 100 µg/mL	25 µg/mL (≈ 39 µM)	3.13 µg/mL (≈ 4.88 µM)	1.56 µg/mL (≈ 2.43 µM)	> 100 µg/mL	> 100 µg/mL	> 100 µg/mL	> 100 µg/mL	> 100 µg/mL	25 µg/mL (≈ 39 µM)	> 100 µg/mL	> 100 µg/mL	MIC (S. aureus (29213)): 1.56 µg/mL (≈ 2.43 µM); MCC at 24 h [1]: > 100 µg/mL
